These results are taken from patent US6603046B1, “Bis-aromatic a,β-unsaturated ketones” (Lica Pharmaceuticals A/S, priority 1992, dated 2003).

In brackets after ≈: the same amount, converted by molar mass.

Assay in all cases: organism not typed
The test system of test [1] is L. longbeacheae. It counts as cell-based.
Test [2] concerns L. bozemanii. It is filed as cell-based.
Test [3] relates to L. wadsworthii. It counts as cell-based.
For test [4], the system named is L. domoffli. It is filed as cell-based, L. dumoffii.

For the molecule `C=CC(C)(C)c1cc(/C=C/C(=O)c2ccc(O)cc2)c(OC)cc1O` [Licochalcone A, licochalcone A], the MIC in test [1] worked out at 1 µg/mL (≈ 2.96 µM); in test [2], 2 µg/mL (≈ 5.91 µM); in test [3] it was 2 µg/mL (≈ 5.91 µM); in test [4] it was 2 µg/mL (≈ 5.91 µM).

The term MIC denotes the least concentration at which growth counts as inhibited.
